Experiment: Optical measurement of the dyes by UV-visible spectrophotometer
Format: physicochemical
Design: Max absorption wavelength in MeOH solution: unit: nm
Settings: for absorption coefficient (ε) (* 10^4) / Max absorption wavelength in MeOH solution: MeOH solution
Source text: Measured by UV-visible spectrophotometer, the optical properties (e.g. maximum absorption wavelength in solution) of the dyes of the preferred embodiments are tabulated in Table 1. In Table 1, dye I-2 has a maximum absorption wavelength of 489 nm in methanol solution, and dye V-2 has a maximum absorption wavelength of 493 nm in methanol solution, respectively.

[1] = at second printed absorption maximum

SMILES | absorption coefficient (ε) (* 10^4) (at first absorption maximum) | Max absorption wavelength in MeOH solution (first band) | absorption coefficient (ε) (* 10^4) [1] | Max absorption wavelength in MeOH solution (second printed band) | maximum absorption wavelength in methanol solution [nm]
CCCC[N+](CCCC)(CCCC)CCCC [I-c] | 6.22 * 10^4 | 460 |  |  | 
CCCCN(CCCC)c1ccc([N+](=C2C=CC(=[N+](c3ccc(N(CCCC)CCCC)cc3)c3ccc(N(CCCC)CCCC)cc3)C=C2)c2ccc(N(CCCC)CCCC)cc2)cc1 [I-d] | 6.58 * 10^4 | 460 | 5.11 * 10^4 | 1067 | 
Cc1sc2ccccc2[n+]1C [I-m] | 10.7 * 10^4 | 472 |  |  | 
CCCC[N+]1=C(C)C(C)(C)c2ccccc21 [I-j] | 12.1 * 10^4 | 459 |  |  | 
CC1=[N+](Cc2ccc(C(=O)OCC(C)(C)C(C)C)cc2)c2ccccc2C1(C)C [V-b] | 9.72 * 10^4 | 492 |  |  | 
CC1=[N+](C)c2ccccc2C1(C)C [Dye I-2] | 15.4 * 10^4 | 489 |  |  | 489
CC1=[N+](Cc2ccc(C(=O)OCC(F)(F)C(F)F)cc2)c2ccccc2C1(C)C [I-f] | 8.08 * 10^4 | 448 |  |  | 
CC1=[N+](C)c2ccccc2C1(C)C [I-h] | 18.5 * 10^4 | 462 |  |  | 
CC1=[N+](Cc2ccc(C(=O)OCC(F)(F)C(F)F)cc2)c2ccccc2C1(C)C [I-e] | 7.58 * 10^4 | 471 |  |  | 
CC1=[N+](C)c2ccccc2C1(C)C [I-n] | 11.5 * 10^4 | 462 |  |  | 
CCOC(=O)CCCC[N+]1=C(C)C(C)(C)c2ccccc21 [I-k] | 11.8 * 10^4 | 460 |  |  | 
CC1=[N+](Cc2ccc(C(=O)OCC(F)(F)C(F)F)cc2)c2ccccc2C1(C)C [I-i] | 12.2 * 10^4 | 464 |  |  | 
CC1=[N+](Cc2ccc(C(=O)OCC(F)(F)C(C)F)cc2)c2ccccc2C1(C)C (stereo not drawn) [I-b] | 8.4 * 10^4 | 495 |  |  | 
CC1=[N+](C)c2ccccc2C1(C)C [V-e] | 10.35 * 10^4 | 490 |  |  | 
c1ccncc1 [I-a] | 4.98 * 10^4 | 460 |  |  | 
COS(=O)(=O)CCCC[N+]1=C(C)C(C)(C)c2ccccc21 [I-l] | 12.5 * 10^4 | 461 |  |  | 
CC1=[N+](Cc2ccc(C(=O)OCC(F)(F)C(F)F)cc2)c2ccccc2C1(C)C [I-g] | 12.99 * 10^4 | 463 |  |  | 
CCN(CC)CC [V-d] | 8.45 * 10^4 | 463 |  |  | 
CC1=[N+](C)c2ccccc2C1(C)C [Dye V-2] | 19.1 * 10^4 | 493 |  |  | 493
CCCCN(CCCC)c1ccc([N+](=C2C=CC(=[N+](c3ccc(N(CCCC)CCCC)cc3)c3ccc(N(CCCC)CCCC)cc3)C=C2)c2ccc(N(CCCC)CCCC)cc2)cc1 [V-c] | 6.8 * 10^4 | 461 | 3.8 * 10^4 | 1067 | 
CCCC[N+](CCCC)(CCCC)CCCC [V-a] | 6.41 * 10^4 | 461 |  |  | 
